Structures are written as SMILES. Like-named read-outs stand apart in the source and are kept apart here.

What all share (format): cell-based
One experiment deals with T1, ATR kinase (Homo sapiens, UniProt Q13535).
T1 construct: endogenous in cells; host or cells: HT29 cells (ECACC #85061109)
The experiment can be described thus: Assay b): ATR cellular potency (pChk1 Ser345 in HT29 cells after 4NQO). On the procedure:
ATR is a PI 3-kinase-related kinase which phosphorylates multiple substrates on serine or threonine residues in response to DNA damage during or replication blocks. Chk1, a downstream protein kinase of ATR, plays a key role in DNA damage checkpoint control. Activation of Chk1 involves phosphorylation of Ser317 and Ser345 (the latter regarded as the preferential target for phosphorylation/activation by ATR).
The following morning compound of Formula (I) in 100% DMSO were added to assay plates by acoustic dispensing. After 1 h incubation at 37° C. and 5% CO2, 40 nl of 3 mM 4NQO in 100% DMSO was added to all wells by acoustic dispensing, except minimum control wells which were left untreated with 4NQO to generate a null response control. Plates were returned to the incubator for a further 1 h. […] Then 20 μl of 0.1% Triton X100 in PBS was added and incubated for 10 minutes at r.t., to permeabalise cells. Then the plates were washed once with 50 μl/well PBS, using a Biotek EL405 plate washer.
After 2 h incubation at r.t., the plates were washed three times with 50 μl/well PBS, using a Biotek EL405 plate washer, and plates were then sealed with black plate seals until read. Plates were read using an ArrayScan VTI instrument, using an XF53 filter with 10× objective.

In a further experiment the target is T2, ATM kinase (Homo sapiens, UniProt Q13315).
T2 construct: endogenous in cells; host or cells: HT29 cells (ECACC #85061109)
T2 sequence (Q13315 whole entry): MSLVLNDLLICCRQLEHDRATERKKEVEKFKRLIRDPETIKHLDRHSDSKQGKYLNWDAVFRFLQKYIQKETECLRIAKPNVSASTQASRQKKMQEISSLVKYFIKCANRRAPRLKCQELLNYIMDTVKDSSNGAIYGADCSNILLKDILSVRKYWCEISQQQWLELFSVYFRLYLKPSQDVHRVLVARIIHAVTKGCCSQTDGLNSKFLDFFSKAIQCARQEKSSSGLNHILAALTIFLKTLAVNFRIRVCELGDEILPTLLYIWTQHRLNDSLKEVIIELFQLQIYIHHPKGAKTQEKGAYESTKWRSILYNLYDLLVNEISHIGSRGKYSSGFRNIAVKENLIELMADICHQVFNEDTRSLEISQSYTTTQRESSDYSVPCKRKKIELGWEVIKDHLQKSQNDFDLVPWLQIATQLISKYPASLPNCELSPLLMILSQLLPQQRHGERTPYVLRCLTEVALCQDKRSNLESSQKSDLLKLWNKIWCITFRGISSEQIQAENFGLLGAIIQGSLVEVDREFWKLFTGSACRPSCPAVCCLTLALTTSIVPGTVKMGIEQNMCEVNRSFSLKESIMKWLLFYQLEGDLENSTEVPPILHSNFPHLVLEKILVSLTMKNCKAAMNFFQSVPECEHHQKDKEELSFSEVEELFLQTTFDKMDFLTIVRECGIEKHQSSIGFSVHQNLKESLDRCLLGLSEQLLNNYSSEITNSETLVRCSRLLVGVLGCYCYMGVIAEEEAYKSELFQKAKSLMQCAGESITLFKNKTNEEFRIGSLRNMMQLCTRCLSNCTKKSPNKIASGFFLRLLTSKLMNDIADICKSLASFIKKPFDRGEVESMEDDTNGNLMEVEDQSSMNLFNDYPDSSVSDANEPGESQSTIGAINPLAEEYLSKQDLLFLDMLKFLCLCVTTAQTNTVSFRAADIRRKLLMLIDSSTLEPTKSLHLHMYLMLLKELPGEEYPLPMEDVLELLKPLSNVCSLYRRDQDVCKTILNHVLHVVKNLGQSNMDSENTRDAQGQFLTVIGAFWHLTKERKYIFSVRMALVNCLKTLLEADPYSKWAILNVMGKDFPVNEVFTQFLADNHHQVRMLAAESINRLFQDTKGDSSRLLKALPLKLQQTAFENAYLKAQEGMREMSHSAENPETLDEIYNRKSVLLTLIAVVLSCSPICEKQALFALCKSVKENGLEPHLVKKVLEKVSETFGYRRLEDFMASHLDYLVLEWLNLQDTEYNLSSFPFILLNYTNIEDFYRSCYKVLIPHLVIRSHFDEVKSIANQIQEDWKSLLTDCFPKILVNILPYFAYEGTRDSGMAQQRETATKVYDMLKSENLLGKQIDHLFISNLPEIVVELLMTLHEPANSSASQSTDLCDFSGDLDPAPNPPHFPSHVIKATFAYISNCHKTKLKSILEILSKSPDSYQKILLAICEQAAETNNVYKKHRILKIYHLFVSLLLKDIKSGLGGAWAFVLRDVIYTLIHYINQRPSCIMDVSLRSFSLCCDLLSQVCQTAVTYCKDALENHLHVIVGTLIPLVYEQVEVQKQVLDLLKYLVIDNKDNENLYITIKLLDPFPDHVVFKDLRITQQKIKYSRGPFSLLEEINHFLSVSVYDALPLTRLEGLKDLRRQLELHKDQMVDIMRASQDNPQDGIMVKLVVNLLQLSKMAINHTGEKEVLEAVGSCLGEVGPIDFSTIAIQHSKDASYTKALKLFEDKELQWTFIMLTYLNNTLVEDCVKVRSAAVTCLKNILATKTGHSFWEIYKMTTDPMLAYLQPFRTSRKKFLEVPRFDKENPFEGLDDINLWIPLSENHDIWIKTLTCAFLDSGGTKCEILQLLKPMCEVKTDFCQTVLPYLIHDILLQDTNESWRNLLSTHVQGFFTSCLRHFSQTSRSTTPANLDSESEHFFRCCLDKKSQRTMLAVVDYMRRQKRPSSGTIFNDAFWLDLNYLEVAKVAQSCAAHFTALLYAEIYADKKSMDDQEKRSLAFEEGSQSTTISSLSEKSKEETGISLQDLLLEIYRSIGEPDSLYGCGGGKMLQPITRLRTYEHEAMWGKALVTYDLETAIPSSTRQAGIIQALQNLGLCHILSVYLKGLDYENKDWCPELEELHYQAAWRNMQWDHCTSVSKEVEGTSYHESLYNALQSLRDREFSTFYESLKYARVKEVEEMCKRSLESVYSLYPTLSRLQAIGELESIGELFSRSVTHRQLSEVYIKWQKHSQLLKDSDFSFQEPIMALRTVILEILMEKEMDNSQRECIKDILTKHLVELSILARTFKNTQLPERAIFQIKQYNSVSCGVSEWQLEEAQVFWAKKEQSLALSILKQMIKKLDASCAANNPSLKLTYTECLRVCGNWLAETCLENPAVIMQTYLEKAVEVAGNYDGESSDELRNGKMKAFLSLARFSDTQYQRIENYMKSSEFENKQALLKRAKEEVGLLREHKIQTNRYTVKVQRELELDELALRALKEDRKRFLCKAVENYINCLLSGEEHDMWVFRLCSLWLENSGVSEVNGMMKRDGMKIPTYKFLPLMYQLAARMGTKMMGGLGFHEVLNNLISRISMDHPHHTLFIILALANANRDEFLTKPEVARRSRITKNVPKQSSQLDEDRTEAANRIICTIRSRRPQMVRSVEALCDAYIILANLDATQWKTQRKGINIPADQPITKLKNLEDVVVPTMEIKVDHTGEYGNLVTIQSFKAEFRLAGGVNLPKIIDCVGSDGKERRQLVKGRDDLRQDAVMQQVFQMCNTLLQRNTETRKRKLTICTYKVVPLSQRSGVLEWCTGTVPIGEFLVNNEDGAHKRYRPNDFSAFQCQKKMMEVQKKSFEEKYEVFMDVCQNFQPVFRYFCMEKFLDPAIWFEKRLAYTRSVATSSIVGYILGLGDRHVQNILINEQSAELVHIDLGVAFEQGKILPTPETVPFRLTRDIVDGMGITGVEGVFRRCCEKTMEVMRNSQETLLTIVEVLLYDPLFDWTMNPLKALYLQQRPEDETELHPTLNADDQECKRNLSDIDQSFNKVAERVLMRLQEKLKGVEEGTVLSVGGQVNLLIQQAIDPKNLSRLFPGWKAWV
The experiment can be described thus: Assay a): ATM cellular potency (pATM Ser1981 in irradiated HT29 cells). The procedure:
Most ATM molecules in the cell are rapidly phosphorylated on this site after doses of radiation as low as 0.5 Gy, and binding of a phosphospecific antibody is detectable after the introduction of only a few DNA double-strand breaks in the cell.
The rationale of the p ATM assay is to identify inhibitors of ATM in cells. HT29 cells are incubated with test compounds for 1 hr prior to X-ray-irradiation. 1 h later the cells are fixed and stained for p ATM (Ser1981). The fluorescence is read on the arrayscan imaging platform.
The following morning compounds of Formula (I) in 100% DMSO were added to assay plates by acoustic dispensing. After 1 h incubation at 37° C. and 5% CO2, plates (up to 6 at a time) were irradiated using the X-RAD 320 instrument (PXi) with equivalent to ˜600cGy. Plates were returned to the incubator for a further 1 h. […] Then 20 μl of 0.1% Triton X100 in PBS was added and incubated for 20 minutes at r.t., to permeabalise cells. Then the plates were washed once with […] PBS, using a Biotek EL405 plate washer.
After 1 h incubation at r.t., the plates were washed three times with 50 μl/well PBS, using a Biotek EL405 plate washer, and plates were sealed and kept in PBS at 4° C. until read. Plates were read using an ArrayScan VTI instrument, using an XF53 filter with 10× objective.

The target of the next experiment is T3, mTOR (Homo sapiens, UniProt P42345).
T3 construct: phosphorylation of the Akt protein at Ser473 (AKT lies downstream of PI3Kα in the signal transduction pathway) in the MDA-MB-468 cells; endogenous in cells; host or cells: MDA-MB-468 cells (ATCC HTB 132)
The experiment can be described thus: Assay d): mTOR cellular potency (phospho-AKT Ser473 in MDA-MB-468 cells). The procedure:
This assay was used to measure mTOR inhibition in cells. The aim of the phospho-AKT cell based mechanism of action assay using the Acumen Explorer is to identify inhibitors of either PI3Kα or mTOR-Rictor (Rapamycin insensitive companion of mTOR). This is measured by any decrease in the phosphorylation of the Akt protein at Ser473 (AKT lies downstream of PI3Kα in the signal transduction pathway) in the MDA-MB-468 cells following treatment with compound.
MDA-MB-468 cells (human breast adenocarcinoma #ATCC HTB 132) were seeded at 1500 cells/well in 40 μl of DMEM containing 10% FBS and 1% glutamine into Greiner 384 well black flat-bottomed plates. Cell plates were incubated for 18 h in a 37° C. incubator before dosing with compounds of Formula (I) in 100% DMSO using acoustic dispensing. Compounds were dosed in a 12 point concentration range into a randomised plate map. Control wells were generated either by dosing of 100% DMSO (max signal) or addition of a reference compound (a PI3K-βinhibitor) that completely eliminated the pAKT signal (min control). Plates were incubated at 37° C. for 2 h; cells were then fixed by the addition of 10 μl of a 3.7% formaldehyde solution. After 30 minutes the plates were washed with PBS using a Tecan PW384 plate washer. Wells were blocked and cells permeabilised with the addition of 40 μl of PBS containing 0.5% Tween20 and 1% Marvel™ (dried milk powder) and incubated for 60 minutes at r.t. The plates were washed with PBS containing 0.5% (v/v) Tween20 and 20 μl rabbit anti-phospho AKT Ser473 (Cell Signalling Technologies, #3787) in same PBS-Tween+1% Marvel™ was added and incubated overnight at 4° C.
Plates were washed 3 times with PBS+0.05% Tween 20 using a Tecan PW384. 20 μl of secondary antibody Alexa Fluor 488 anti-Rabbit (Molecular Probes, #A11008) diluted in PBS+0.05% Tween20 containing 1% Marvel™ was added to each well and incubated for 1 h at r.t. Plates were washed three times as before then 20 μl PBS added to each well and plates sealed with a black plate sealer.
The plates were read on an Acumen plate reader as soon as possible, measuring green fluorescence after excitation with 488 nm laser. Using this system IC50 values were generated and quality of plates was determined by control wells. Reference compounds were run each time to monitor assay performance.

Where [1] appears, read: HT29 cells, 4NQO, pChk1 Ser345; Table 2; read-out: Assay b) ATR Cell IC50.
[2] abbreviates: HT29 cells, X-ray irradiation, pATM Ser1981; Table 2; read-out: Assay a) ATM Cell IC50.
The mark [3] stands for this setting: MDA-MB-468 cells, phospho-AKT Ser473, 2 h; Table 2; read-out: Assay d) mTOR Cell IC50.

Turning to `CO[C@H]1C[C@@H](n2c(=O)n(C)c3cnc4ccc(-c5ccc(OCCCN6CCCCC6)cc5)cc4c32)C1` [Example 43, 1-(cis-3-methoxycyclobutyl)-3-methyl-8-[4-[3-(1-piperidyl)propoxy]phenyl]imidazo[4,5-c]quinolin-2-one], the results for the half-inhibitory concentration (IC50) on ATR kinase (setting [1]), at ATM kinase (setting [2]) and on mTOR (setting [3]) were over 30000 nM, 0.254 nM and 3630 nM, respectively.

`CO[C@H]1CC[C@@H](n2c(=O)n(C)c3cnc4ccc(-c5ccc(OCCCN(C)C)cc5)cc4c32)CC1` [Example 25, 8-[4-[3-(dimethylamino)propoxy]phenyl]-1-(cis-4-methoxycyclohexyl)-3-methyl-imidazo[4,5-c]quinolin-2-one]: the figures for the half-maximal inhibitory concentration (IC50) at ATR kinase (setting [1]), on ATM kinase (setting [2]) and at mTOR (setting [3]) were 21000 nM, 0.089 nM and 879 nM, respectively.

`CN(C)CCOc1ccc(-c2ccc3ncc4c(c3c2)n(C2CCOCC2)c(=O)n4C)cc1` [Example 54, 8-[4-[2-(dimethylamino)ethoxy]phenyl]-3-methyl-1-tetrahydropyran-4-yl-imidazo[4,5-c]quinolin-2-one]: the results for the IC50 on ATR kinase (setting [1]), at ATM kinase (setting [2]) and on mTOR (setting [3]) were over 24700 nM, 11.1 nM and 7730 nM, respectively.

Turning to `CN(C)CCOc1ccc(-c2ccc3ncc4c(c3c2)n(C2CCC2)c(=O)n4C)cc1` [Example 53, 1-cyclobutyl-8-[4-[2-(dimethylamino)ethoxy]phenyl]-3-methyl-imidazo[4,5-c]quinolin-2-one], the 50% inhibitory concentration (IC50) at ATR kinase (setting [1]) was over 30000 nM; on ATM kinase (setting [2]) it was 9.38 nM; on mTOR (setting [3]), 10000 nM.

Take `COC(=O)N1CCC(n2c(=O)n(C)c3cnc4ccc(-c5ccc(OC)nc5)cc4c32)CC1` [CN102372711A Compound 4, reference compound]: the IC50 amounted to 68.6 nM on ATR kinase (HT29 cells, 4NQO, pChk1 Ser345; Table 3 comparative data; read-out: Assay b) ATR Cell IC50); 11.2 nM on ATM kinase (HT29 cells, X-ray irradiation, pATM Ser1981; Table 3 comparative data; read-out: Assay a) ATM Cell IC50); 72.9 nM at mTOR (MDA-MB-468 cells, phospho-AKT Ser473, 2 h; Table 3 comparative data; read-out: Assay d) mTOR Cell IC50).

For `CO[C@@H]1CCC[C@H](n2c(=O)n(C)c3cnc4ccc(-c5ccc(OCCCN(C)C)cc5)cc4c32)C1` (relative stereo) [Example 33, 8-[4-[3-(dimethylamino)propoxy]phenyl]-1-[cis-3-methoxycyclohexyl]-3-methyl-imidazo[4,5-c]quinolin-2-one], the IC50 at ATR kinase (setting [1]) came out at 28000 nM; at ATM kinase (setting [2]) it was 2.3 nM; at mTOR (setting [3]), 1230 nM.

In the case of `CO[C@H]1CC[C@H](n2c(=O)n(C)c3cnc4ccc(-c5ccc(OCCN(C)C)cc5)cc4c32)C1` [Example 52, 8-[4-[2-(dimethylamino)ethoxy]phenyl]-1-[(1S,3S)-3-methoxycyclopentyl]-3-methyl-imidazo[4,5-c]quinolin-2-one], the 50% inhibitory concentration (IC50) stood at 21900 nM on ATR kinase (setting [1]), 3.57 nM on ATM kinase (setting [2]) and 5630 nM at mTOR (setting [3]).

Regarding `CO[C@H]1CC[C@H](n2c(=O)n(C)c3cnc4cc(F)c(-c5ccc(OCCCN6CCC6)cc5)cc4c32)C1` (single isomer, unassigned) [Example 23, 8-[4-[3-(azetidin-1-yl)propoxy]phenyl]-7-fluoro-1-[trans-3-methoxycyclopentyl]-3-methyl-imidazo[4,5-c]quinolin-2-one], the IC50 at ATR kinase (setting [1]) is over 30000 nM; on ATM kinase (setting [2]), 1.42 nM; at mTOR (setting [3]), 5680 nM.

Turning to `CO[C@H]1C[C@@H](n2c(=O)n(C)c3cnc4ccc(-c5ccc(OCCCN(C)C)cc5)cc4c32)C1` [Example 11, 8-[4-[3-(dimethylamino)propoxy]phenyl]-1-(cis-3-methoxycyclobutyl)-3-methyl-imidazo[4,5-c]quinolin-2-one], the figures for the 50% inhibitory concentration (IC50) on ATR kinase (setting [1]), on ATM kinase (setting [2]) and on mTOR (setting [3]) were over 30000 nM, 0.647 nM and 6360 nM, respectively.

Turning to `Cn1c(=O)n([C@@H]2CCCOC2)c2c3cc(-c4ccc(OCCN5CCCC5)cc4)ccc3ncc21` [Example 50, 3-methyl-8-[4-(2-pyrrolidin-1-ylethoxy)phenyl]-1-[(3R)-tetrahydropyran-3-yl]imidazo[4,5-c]quinolin-2-one], the IC50 was over 25500 nM at ATR kinase (setting [1]), 13.4 nM on ATM kinase (setting [2]) and at least 30000 nM on mTOR (setting [3]).

For the compound `CO[C@H]1CCC[C@H](n2c(=O)n(C)c3cnc4ccc(-c5ccc(OCCCN6CCCC6)cc5)cc4c32)C1` (single isomer, unassigned) [Example 30, 1-[trans-3-methoxycyclohexyl]-3-methyl-8-[4-(3-pyrrolidin-1-ylpropoxy)phenyl]imidazo[4,5-c]quinolin-2-one], the concentration for half-maximal inhibition (IC50) worked out at 15500 nM on ATR kinase (setting [1]), 1.62 nM at ATM kinase (setting [2]) and 1700 nM on mTOR (setting [3]).

With `CO[C@H]1C[C@@H](n2c(=O)n(C)c3cnc4ccc(-c5ccc(OCCN6CCCC6)cc5)cc4c32)C1` [Example 49, 1-(3-(cis)methoxycyclobutyl)-3-methyl-8-[4-(2-pyrrolidin-1-ylethoxy)phenyl]imidazo[4,5-c]quinolin-2-one], the half-inhibitory concentration (IC50) on ATR kinase (setting [1]) was over 30000 nM; at ATM kinase (setting [2]), 36.1 nM; on mTOR (setting [3]) it was at least 30000 nM.

As to `CN(C)CCCOc1ccc(-c2ccc3ncc4c(c3c2)n(C2CCOCC2)c(=O)n4C)cc1` [Example 44, 8-[4-[3-(dimethylamino)propoxy]phenyl]-3-methyl-1-tetrahydropyran-4-yl-imidazo[4,5-c]quinolin-2-one], the results for the IC50 on ATR kinase (setting [1]), at ATM kinase (setting [2]) and at mTOR (setting [3]) were over 21700 nM, 0.364 nM and 6990 nM, respectively.

Regarding `CO[C@H]1C[C@H](n2c(=O)n(C)c3cnc4ccc(-c5ccc(OCCCN(C)C)cc5)cc4c32)C1` [Example 21, 8-[4-[3-(dimethylamino)propoxy]phenyl]-1-(trans-3-methoxycyclobutyl)-3-methyl-imidazo[4,5-c]quinolin-2-one], the half-inhibitory concentration (IC50) on ATR kinase (setting [1]) is over 30000 nM; at ATM kinase (setting [2]) it was 0.533 nM; at mTOR (setting [3]), 5070 nM.

For `CO[C@H]1C[C@H](n2c(=O)n(C)c3cnc4ccc(-c5ccc(OCCCN6CCCC6)cc5)cc4c32)C1` [Example 42, 1-(trans-3-methoxycyclobutyl)-3-methyl-8-[4-(3-pyrrolidin-1-ylpropoxy)phenyl]imidazo[4,5-c]quinolin-2-one], the concentration for half-maximal inhibition (IC50) is over 30000 nM at ATR kinase (setting [1]), 0.689 nM on ATM kinase (setting [2]) and 2170 nM at mTOR (setting [3]).

The values are drawn from US20180318287A1, “Imidazo[4,5-c]quinolin-2-one Compounds and Their Use in Treating Cancer” (ASTRAZENECA AB, priority 2015, published 2018).
